Experimental data reported in ChEMBL document CHEMBL1201862, “PubChem BioAssay data set” (2004).
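1) Cells in 96-well plates. 2) Compound, 48 h, 5 concentrations. 3) Linear interpolation between surrounding doses. 4) Unreached endpoint = highest concentration. The concentration for 50% growth inhibition is given as GI50.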 The source made the active and inactive calls. Rule as the data show it: active = GI50 up to about 1.1 µM and inactive = higher.

Legend:
Test in all cases: NCI anticancer screen, dose series, 48 h
SNB-19 = tested on: SNB-19
CAKI-1 = tested on: CAKI-1
M14 = tested on: M14
SW-620 = tested on: SW-620
NCI/ADR-RES = tested on: NCI/ADR-RES
DU-145 = tested on: DU-145
SR = tested on: SR
786-0 = tested on: 786-0
MDA-MB-231 = tested on: MDA-MB-231
BT-549 = tested on: BT-549
UO-31 = tested on: UO-31
HOP-62 = tested on: HOP-62
MCF7 = tested on: MCF7
NCI-H460 = tested on: NCI-H460
SK-MEL-28 = tested on: SK-MEL-28
SK-OV-3 = tested on: SK-OV-3
SK-MEL-5 = tested on: SK-MEL-5
NCI-H23 = tested on: NCI-H23
LOX IMVI = tested on: LOX IMVI
PC-3 = tested on: PC-3

Measured: GI50

COc1ccc2c(c1)c1c(n2CCN2CCCCC2)-c2ccccc2CC1
inactive: SNB-19 16.6 µM | CAKI-1 11.8 µM | M14 14.7 µM | SW-620 17.4 µM | NCI/ADR-RES 16.7 µM | DU-145 32.1 µM | SR 11.4 µM | 786-0 18.6 µM | MDA-MB-231 16.4 µM | BT-549 23.1 µM | UO-31 13.3 µM | HOP-62 18.6 µM | MCF7 14.3 µM | NCI-H460 14.5 µM | SK-MEL-28 17.9 µM | SK-OV-3 19.7 µM | SK-MEL-5 15.9 µM | NCI-H23 17.7 µM | LOX IMVI 21.3 µM | PC-3 13.6 µM
